Results published in ChEMBL document CHEMBL2440076, “New triarylpyrazoles as broad-spectrum anticancer agents: design, synthesis, and biological evaluation” (Eur J Med Chem, 2013).

What was measured:
[1] = system: T47D; test: Growth inhibition of human T47D cells assessed as cell growth at 10 uM after 48 hrs by sulforhodamine B assay; format: functional; settings: read-out: Activity
[2] = system: MDA-MB-468; test: Growth inhibition of human MDA-MB-468 cells assessed as cell growth at 10 uM after 48 hrs by sulforhodamine B assay; format: functional; settings: MDA-MB-468, 48 h, read-out: Activity
[3] = Growth inhibition of human Hs 578T cells assessed as cell growth at 10 uM after 48 hrs by sulforhodamine B assay; format: functional; settings: read-out: Activity
[4] = system: TK-10; test: Growth inhibition of human TK10 cells assessed as cell growth at 10 uM after 48 hrs by sulforhodamine B assay; format: functional; settings: TK-10, 48 h, read-out: Activity
[5] = system: KM12; test: Growth inhibition of human KM12 cells after 48 hrs by sulforhodamine B assay; format: functional, cell-based; settings: KM12, 48 h
[6] = system: HCT-116; test: Growth inhibition of human HCT116 cells after 48 hrs by sulforhodamine B assay; format: functional; settings: HCT-116, 48 h
[7] = system: HCT-15; test: Growth inhibition of human HCT15 cells after 48 hrs by sulforhodamine B assay; format: functional; settings: HCT-15, 48 h
[8] = system: NCI-H23; test: Growth inhibition of human NCI-H23 cells after 48 hrs by sulforhodamine B assay; format: functional; settings: NCI-H23, 48 h
[9] = system: SR; test: Growth inhibition of human SR cells after 48 hrs by sulforhodamine B assay; format: functional
[10] = system: MOLT-4; test: Growth inhibition of human MOLT4 cells after 48 hrs by sulforhodamine B assay; format: functional; settings: MOLT-4, 48 h
[11] = system: OVCAR-3; test: Growth inhibition of human OVCAR3 cells assessed as cell growth at 10 uM after 48 hrs by sulforhodamine B assay; format: functional; settings: OVCAR-3, 48 h, read-out: Activity
[12] = system: IGROV-1; test: Growth inhibition of human IGROV1 cells assessed as cell growth at 10 uM after 48 hrs by sulforhodamine B assay; format: functional; settings: IGROV-1, 48 h, read-out: Activity
[13] = system: SK-MEL-5; test: Growth inhibition of human SK-MEL-5 cells assessed as cell growth at 10 uM after 48 hrs by sulforhodamine B assay; format: functional; settings: SK-MEL-5, 48 h, read-out: Activity
[14] = system: MDA-MB-435; test: Growth inhibition of human MDA-MB-435 cells assessed as cell growth at 10 uM after 48 hrs by sulforhodamine B assay; format: functional; settings: MDA-MB-435, 48 h, read-out: Activity
[15] = system: LOX IMVI; test: Growth inhibition of human LOXIMVI cells assessed as cell growth at 10 uM after 48 hrs by sulforhodamine B assay; format: functional; settings: read-out: Activity
[16] = system: SF-539; test: Growth inhibition of human SF539 cells assessed as cell growth at 10 uM after 48 hrs by sulforhodamine B assay; format: functional; settings: SF-539, 48 h, read-out: Activity
[17] = system: SF-268; test: Growth inhibition of human SF268 cells assessed as cell growth at 10 uM after 48 hrs by sulforhodamine B assay; format: functional; settings: SF-268, 48 h, read-out: Activity
[18] = system: HCT-15; test: Growth inhibition of human HCT15 cells assessed as cell growth at 10 uM after 48 hrs by sulforhodamine B assay; format: functional; settings: HCT-15, 48 h, read-out: Activity
[19] = system: NCI-H460; test: Growth inhibition of human NCI-H460 cells assessed as cell growth at 10 uM after 48 hrs by sulforhodamine B assay; format: functional; settings: NCI-H460, 48 h, read-out: Activity
[20] = system: NCI-H322M; test: Growth inhibition of human NCI-H322M cells assessed as cell growth at 10 uM after 48 hrs by sulforhodamine B assay; format: functional; settings: read-out: Activity
[21] = system: DU-145; test: Growth inhibition of human DU145 cells after 48 hrs by sulforhodamine B assay; format: functional; settings: DU-145, 48 h
[22] = system: UO-31; test: Growth inhibition of human UO31 cells after 48 hrs by sulforhodamine B assay; format: functional; settings: UO-31, 48 h
[23] = system: PC-3; test: Growth inhibition of human PC3 cells after 48 hrs by sulforhodamine B assay; format: functional, cell-based; settings: PC-3, 48 h
[24] = system: RXF 393; test: Growth inhibition of human RXF393 cells after 48 hrs by sulforhodamine B assay; format: functional; settings: RXF 393, 48 h
[25] = system: SN12C; test: Growth inhibition of human SN12C cells after 48 hrs by sulforhodamine B assay; format: functional
[26] = system: OVCAR-5; test: Growth inhibition of human OVCAR5 cells after 48 hrs by sulforhodamine B assay; format: functional; settings: OVCAR-5, 48 h
[27] = system: OVCAR-4; test: Growth inhibition of human OVCAR4 cells after 48 hrs by sulforhodamine B assay; format: functional; settings: OVCAR-4, 48 h
[28] = system: SK-MEL-5; test: Growth inhibition of human SK-MEL-5 cells after 48 hrs by sulforhodamine B assay; format: functional; settings: SK-MEL-5, 48 h
[29] = system: UACC-257; test: Growth inhibition of human UACC257 cells after 48 hrs by sulforhodamine B assay; format: functional; settings: UACC-257, 48 h
[30] = system: M14; test: Growth inhibition of human M14 cells after 48 hrs by sulforhodamine B assay; format: functional; settings: M14, 48 h
[31] = system: SNB-19; test: Growth inhibition of human SNB19 cells after 48 hrs by sulforhodamine B assay; format: functional; settings: SNB-19, 48 h
[32] = system: RPMI-8226; test: Growth inhibition of human RPMI8226 cells assessed as cell growth at 10 uM after 48 hrs by sulforhodamine B assay; format: functional; settings: RPMI-8226, 48 h, read-out: Activity
[33] = system: MOLT-4; test: Growth inhibition of human MOLT4 cells assessed as cell growth at 10 uM after 48 hrs by sulforhodamine B assay; format: functional; settings: MOLT-4, 48 h, read-out: Activity
[34] = system: CCRF-CEM; test: Growth inhibition of human CCRF-CEM cells assessed as cell growth at 10 uM after 48 hrs by sulforhodamine B assay; format: functional; settings: read-out: Activity
[35] = read-out: LC50 (the source's name)

Molecule `O=C(Nc1cccc(-n2cc(-c3ccncc3)c(-c3ccc(Cl)c(O)c3)n2)c1)c1ccc(N2CCOCC2)c(C(F)(F)F)c1` has a growth at 10 µM [1] of 69.4%, a growth at 10 µM [2] of 66% and a growth at 10 µM [3] of 15.5%. The growth at 10 µM [4] was 119%, the GI50 [5] was 1.94 µM and the TGI [5] was > 50 µM. For the same molecule, the CC50 [5, 35] was > 50 µM, the GI50 [6] was 2.87 µM and the TGI [6] was > 50 µM. The CC50 [6, 35] was > 50 µM, the GI50 [7] was 1.81 µM and the LC50 [7] was > 50 µM. The TGI [7] was 25.3 µM, the GI50 [8] was 4.2 µM and the LC50 [8] was > 50 µM. For the same molecule, the TGI [8] was 30.1 µM, the GI50 [9] was 1.63 µM and the TGI [9] was > 50 µM. The CC50 [9, 35] was > 50 µM, the GI50 [10] was 2.37 µM and the TGI [10] was 36.7 µM. For the same molecule, the CC50 [10, 35] was > 50 µM, the growth at 10 µM [11] was 56% and the growth at 10 µM [12] was 96.8%. For the same molecule, the growth at 10 µM [13] was 50.8%, the growth at 10 µM [14] was 35.2% and the growth at 10 µM [15] was 9.98%. It also gave a growth at 10 µM [16] of 41.6%, a growth at 10 µM [17] of 55.5% and a growth at 10 µM [18] of 26.2%. The growth at 10 µM [19] was 5.81%, the growth at 10 µM [20] was 82.1% and the GI50 [21] was 4.2 µM. The LC50 [21] was > 50 µM, the TGI [21] was > 50 µM and the GI50 [22] was 2.6 µM. For the same molecule, the TGI [22] was 34.3 µM, the CC50 [22, 35] was > 50 µM and the GI50 [23] was 2.15 µM. For the same molecule, the IC50 [23] was 2.15 µM, the TGI [23] was > 50 µM and the CC50 [23, 35] was > 50 µM. The GI50 [24] was 0.626 µM, the LC50 (concentration killing 50% of cells) [24] was > 50 µM and the TGI [24] was 2.9 µM. The GI50 [25] was 22 µM, the TGI [25] was > 50 µM and the CC50 [25, 35] was > 50 µM. For the same molecule, the GI50 [26] was > 50 µM, the LC50 (concentration killing 50% of cells) [26] was > 50 µM and the TGI [26] was > 50 µM. The GI50 [27] was 39.2 µM, the LC50 (concentration killing 50% of cells) [27] was > 50 µM and the TGI [27] was > 50 µM. It also gave a GI50 [28] of 2.47 µM, an LC50 (concentration killing 50% of cells) [28] of 31.8 µM and a TGI [28] of 10.2 µM. For the same molecule, the GI50 [29] was 6.3 µM, the TGI [29] was 36.8 µM and the CC50 [29, 35] was > 50 µM. For the same molecule, the GI50 [30] was 1.63 µM, the LC50 (concentration killing 50% of cells) [30] was 49.6 µM and the TGI [30] was 9.1 µM. For the same molecule, the GI50 [31] was 4.11 µM, the LC50 (concentration killing 50% of cells) [31] was > 50 µM and the TGI [31] was > 50 µM. For the same molecule, the growth at 10 µM [32] was 5.19%, the growth at 10 µM [33] was 29.1% and the growth at 10 µM [34] was 27.9%.
